For assay [1], the species on record is Rattus norvegicus. The experiment in a line: Antidiuretic activity in rat. It counts as functional, Urine.
The species named for assay [2] is Rattus norvegicus. The experiment in a line: Vasopressor activity in rat. It counts as functional.
Assay [3] deals with T1, Oxytocin receptor (Homo sapiens) (UniProt P30559).
T1 sequence (whole entry): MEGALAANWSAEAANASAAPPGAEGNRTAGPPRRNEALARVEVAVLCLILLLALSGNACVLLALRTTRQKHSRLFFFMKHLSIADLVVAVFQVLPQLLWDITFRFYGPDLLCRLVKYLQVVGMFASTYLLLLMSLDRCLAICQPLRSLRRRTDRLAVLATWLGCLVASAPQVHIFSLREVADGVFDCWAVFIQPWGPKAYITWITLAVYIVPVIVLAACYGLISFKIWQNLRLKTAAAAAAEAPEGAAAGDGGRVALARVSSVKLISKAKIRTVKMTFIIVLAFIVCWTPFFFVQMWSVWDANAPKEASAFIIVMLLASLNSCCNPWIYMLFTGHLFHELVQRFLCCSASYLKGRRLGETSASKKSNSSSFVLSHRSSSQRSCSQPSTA
The assay can be described thus: Activity at OT receptor assessed as oxytocic activity in absence of magnesium. It counts as functional. As to conditions: filed as agonist.

For assay [4], the target named is Vasopressin V2 receptor (Rattus norvegicus, UniProt Q00788). The assay can be described thus: Displacement of [3H]AVP from vasopressin V2 receptor in rat kidney membranes. It is filed as cell membranes, Membrane. A general note: Displacement assays read how much labelled ligand stays bound in the presence of the test substance.
Chain of Vasopressin V2 receptor (Q00788 whole entry): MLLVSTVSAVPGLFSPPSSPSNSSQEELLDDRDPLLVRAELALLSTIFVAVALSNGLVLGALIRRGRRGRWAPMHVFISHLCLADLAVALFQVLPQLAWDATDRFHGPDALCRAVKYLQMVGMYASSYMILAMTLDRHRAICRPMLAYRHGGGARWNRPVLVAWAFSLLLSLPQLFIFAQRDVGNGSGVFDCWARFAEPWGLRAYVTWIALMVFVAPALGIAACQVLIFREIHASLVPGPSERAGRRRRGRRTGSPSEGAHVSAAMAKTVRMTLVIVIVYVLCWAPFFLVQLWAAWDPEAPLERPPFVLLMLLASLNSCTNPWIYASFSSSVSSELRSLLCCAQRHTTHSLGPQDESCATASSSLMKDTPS
Assay [5] deals with Vasopressin V1a receptor (Rattus norvegicus, UniProt P30560). The assay can be described thus: Displacement of [3H]AVP from vasopressin V1a receptor in rat liver membrane. It is filed as cell membranes.
Chain of Vasopressin V1a receptor (P30560 whole entry): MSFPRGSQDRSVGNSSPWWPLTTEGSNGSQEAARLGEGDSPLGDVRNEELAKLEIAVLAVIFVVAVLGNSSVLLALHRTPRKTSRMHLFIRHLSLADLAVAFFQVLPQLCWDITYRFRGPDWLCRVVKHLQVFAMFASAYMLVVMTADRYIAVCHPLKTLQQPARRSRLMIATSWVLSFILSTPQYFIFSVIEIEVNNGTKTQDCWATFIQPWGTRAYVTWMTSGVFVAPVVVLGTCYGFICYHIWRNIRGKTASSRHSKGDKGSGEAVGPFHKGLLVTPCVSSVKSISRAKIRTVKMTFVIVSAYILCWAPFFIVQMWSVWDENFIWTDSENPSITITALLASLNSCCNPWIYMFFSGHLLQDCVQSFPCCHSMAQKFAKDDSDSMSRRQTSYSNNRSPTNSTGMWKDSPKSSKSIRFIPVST
The target of assay [6] is T2, Oxytocin receptor (Rattus norvegicus, UniProt P70536).
T2 sequence (P70536 whole entry): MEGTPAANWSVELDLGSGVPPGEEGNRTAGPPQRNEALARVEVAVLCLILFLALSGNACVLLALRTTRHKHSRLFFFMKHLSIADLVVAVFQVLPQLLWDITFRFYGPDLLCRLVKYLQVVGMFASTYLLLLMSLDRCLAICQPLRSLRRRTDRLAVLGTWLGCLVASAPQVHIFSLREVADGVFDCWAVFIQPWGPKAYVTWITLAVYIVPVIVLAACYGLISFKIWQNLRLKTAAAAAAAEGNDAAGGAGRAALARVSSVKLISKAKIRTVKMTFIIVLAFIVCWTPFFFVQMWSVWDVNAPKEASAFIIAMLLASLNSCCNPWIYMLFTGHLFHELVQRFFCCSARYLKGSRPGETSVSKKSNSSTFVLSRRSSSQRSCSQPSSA
The assay can be described thus: Displacement of [3H]AVP from rat OT receptor expressed in CHO cells. It is filed as cell-based.

SMILES strings stand for the structures. Positions of bridges follow the written chain, without caps; N, C: chain ends. Non-standard residues stand in square brackets, D forms with d. Residues, ends and D or L forms follow the SMILES beside them. Orn = NCCC[C@H](N)C(=O)O; Dab = NCC[C@H](N)C(=O)O; Dap = NC[C@H](N)C(=O)O; Mpa = O=C(O)CCS

As for `NCCC[C@H](NC(=O)[C@@H]1CCCN1C(=O)[C@@H]1CSSCCC(=O)N[C@@H](Cc2ccc(O)cc2)C(=O)N[C@@H](Cc2ccccc2)C(=O)N[C@@H](CCC(N)=O)C(=O)N[C@@H](CC(N)=O)C(=O)N1)C(=O)NCC(N)=O`, the Activity is 486 U/mg in assay [1], 355 U/mg in assay [2] and 15 U/mg in assay [3].

Turning to `CC(C)[C@@H]1NC(=O)[C@H](Cc2ccccc2)NC(=O)[C@H](Cc2ccc(O)cc2)NC(=O)CCSSC[C@@H](C(=O)N2CCC[C@H]2C(=O)N[C@@H](CCCN=C(N)N)C(=O)NCC(N)=O)NC(=O)[C@H](CC(N)=O)NC1=O` ([Mpa]YFVNCPRG-NH2; disulfide 1-6), the Ki in assay [4] is on record as 0.3 nM (antagonist); in assay [5], 60 nM (antagonist).

For `N=C(N)NCCC[C@@H](NC(=O)[C@@H]1CCCN1C(=O)[C@@H]1CSSCCC(=O)N[C@@H](Cc2ccc(O)cc2)C(=O)N[C@@H](Cc2ccccc2)C(=O)N[C@@H](CCC(N)=O)C(=O)N[C@@H](CC(N)=O)C(=O)N1)C(=O)NCC(N)=O` (stereo in doubt; form 1) [DESMOPRESSIN], the Activity in assay [1] came to 1745 U/mg; in assay [2] it was 346 U/mg. The Ki in assay [4] is on record as 0.8 nM (antagonist).

As for `NCCCC[C@H](NC(=O)[C@@H]1CCCN1C(=O)[C@@H]1CSSCCC(=O)N[C@@H](Cc2ccc(O)cc2)C(=O)N[C@@H](Cc2ccccc2)C(=O)N[C@@H](CCCN)C(=O)N[C@@H](CC(N)=O)C(=O)N1)C(=O)NCC(N)=O` ([Mpa]YF[Orn]NCPKG-NH2; disulfide 1-6), the Activity in assay [1] is 7.8 U/mg; in assay [2] it was 0.23 U/mg; in assay [3], 3.1 U/mg. In addition, the inhibitory constant (Ki) in assay [4] is 51 nM (antagonist); in assay [5], 2800 nM (antagonist); in assay [6], 22 nM (antagonist).

Regarding `NCCC[C@@H]1NC(=O)[C@H](Cc2ccccc2)NC(=O)[C@H](Cc2ccc(O)cc2)NC(=O)CCSSC[C@@H](C(=O)N2CCC[C@H]2C(=O)N[C@@H](CCCN=C(N)N)C(=O)NCC(N)=O)NC(=O)[C@H](CC(N)=O)NC1=O` ([Mpa]YF[Orn]NCPRG-NH2; disulfide 1-6), the Activity is 260.32 U/mg in assay [1] and 1.54 U/mg in assay [2]. Besides, the Ki in assay [4] is given as 3.4 nM (antagonist); in assay [5] it was 900 nM (antagonist).

Take `CC(C)C[C@@H]1NC(=O)[C@H](Cc2ccccc2)NC(=O)[C@H](Cc2ccc(O)cc2)NC(=O)CCSSC[C@@H](C(=O)N2CCC[C@H]2C(=O)N[C@@H](CCCNC(=N)N)C(=O)NCC(N)=O)NC(=O)[C@H](CC(N)=O)NC1=O` ([Mpa]YFLNCPRG-NH2; disulfide 1-6): the Activity is 378 U/mg in assay [1], 3.11 U/mg in assay [2] and 0.67 U/mg in assay [3].

On to `NC[C@H](NC(=O)[C@@H]1CCCN1C(=O)[C@@H]1CSSCCC(=O)N[C@@H](Cc2ccc(O)cc2)C(=O)N[C@@H](Cc2ccccc2)C(=O)N[C@@H](CCC(N)=O)C(=O)N[C@@H](CC(N)=O)C(=O)N1)C(=O)NCC(N)=O` ([Mpa]YFQNCP[Dap]G-NH2; disulfide 1-6), for which the Activity is 165 U/mg in assay [1], 8.7 U/mg in assay [2] and 0.9 U/mg in assay [3].

Regarding `CC(C)[C@@H]1NC(=O)[C@H](Cc2ccccc2)NC(=O)[C@H](Cc2ccc(O)cc2)NC(=O)CCSSC[C@@H](C(=O)N2CCC[C@H]2C(=O)N[C@H](CCCNC(=N)N)C(=O)NCC(N)=O)NC(=O)[C@H](CC(N)=O)NC1=O` ([Mpa]YFVNCP[dR]G-NH2; disulfide 1-6), the Activity in assay [1] was 1230 U/mg; in assay [2], under 0.01 U/mg. Further, the inhibition constant (Ki) in assay [4] is listed as 0.26 nM (antagonist); in assay [5], 316 nM (antagonist).

Regarding `NCCCC[C@H](NC(=O)[C@@H]1CCCN1C(=O)[C@@H]1CSSCCC(=O)N[C@@H](Cc2ccc(O)cc2)C(=O)N[C@@H](Cc2ccccc2)C(=O)N[C@@H](CCC(N)=O)C(=O)N[C@@H](CC(N)=O)C(=O)N1)C(=O)NCC(N)=O`, the Activity is 550 U/mg in assay [1], 145 U/mg in assay [2] and 12 U/mg in assay [3].

Take `NCCC[C@@H]1NC(=O)[C@H](Cc2ccccc2)NC(=O)[C@H](Cc2ccc(O)cc2)NC(=O)CCSSC[C@@H](C(=O)N2CCC[C@H]2C(=O)N[C@@H](CCCN)C(=O)NCC(N)=O)NC(=O)[C@H](CC(N)=O)NC1=O` ([Mpa]YF[Orn]NCP[Orn]G-NH2; disulfide 1-6): the Activity is 7.9 U/mg in assay [1], 1.9 U/mg in assay [2] and 2.8 U/mg in assay [3]. In addition, the Ki was 76 nM (antagonist) in assay [4], 1300 nM (antagonist) in assay [5] and 37 nM (antagonist) in assay [6].

`NCC[C@H](NC(=O)[C@@H]1CCCN1C(=O)[C@@H]1CSSCCC(=O)N[C@@H](Cc2ccc(O)cc2)C(=O)N[C@@H](Cc2ccccc2)C(=O)N[C@@H](CCC(N)=O)C(=O)N[C@@H](CC(N)=O)C(=O)N1)C(=O)NCC(N)=O` ([Mpa]YFQNCP[Dab]G-NH2; disulfide 1-6): the Activity in assay [1] was 463 U/mg; in assay [2] it was 385 U/mg; in assay [3] it was 25 U/mg.

Turning to `CC(C)[C@@H]1NC(=O)[C@H](Cc2ccccc2)NC(=O)[C@H](Cc2ccc(O)cc2)NC(=O)CCSSC[C@@H](C(=O)N2CCC[C@H]2C(=O)N[C@@H](CCCNC(=N)N)C(=O)NCC(N)=O)NC(=O)[C@H](CC(N)=O)NC1=O` ([Mpa]YFVNCPRG-NH2; disulfide 1-6), the values for the Activity in assay [1] and in assay [2] were 1150 U/mg and 51 U/mg, respectively.

As to `N=C(N)NCCC[C@@H](NC(=O)[C@@H]1CCCN1C(=O)[C@@H]1CSSCCC(=O)N[C@@H](Cc2ccc(O)cc2)C(=O)N[C@@H](Cc2ccccc2)C(=O)N[C@@H](CCC(N)=O)C(=O)N[C@@H](CC(N)=O)C(=O)N1)C(=O)NCC(N)=O` (stereo in doubt; form 2) [DESMOPRESSIN], the Activity is listed as 1200 U/mg in assay [1] and 0.39 U/mg in assay [2]. In addition, in assay [4], the inhibition constant Ki is on record as 0.3 nM (antagonist).

Turning to `CC(C)C[C@@H]1NC(=O)[C@H](Cc2ccccc2)NC(=O)[C@H](Cc2ccc(O)cc2)NC(=O)CCSSC[C@@H](C(=O)N2CCC[C@H]2C(=O)N[C@@H](CCCN)C(=O)NCC(N)=O)NC(=O)[C@H](CC(N)=O)NC1=O` ([Mpa]YFLNCP[Orn]G-NH2; disulfide 1-6), the Activity in assay [1] is 5.7 U/mg; in assay [2], 3.1 U/mg. Further, the inhibition constant Ki in assay [4] is 425 nM (antagonist); in assay [5], 1400 nM (antagonist).

As for `NC(=O)CNC(=O)[C@H](CCCN=C(N)N)NC(=O)[C@@H]1CCCN1C(=O)[C@@H]1CSSCCC(=O)N[C@@H](Cc2ccc(O)cc2)C(=O)N[C@@H](Cc2ccccc2)C(=O)N[C@@H](CCCN=C(N)N)C(=O)N[C@@H](CC(N)=O)C(=O)N1` ([Mpa]YFRNCPRG-NH2; disulfide 1-6), the Activity in assay [1] came out at 748.32 U/mg; in assay [2], 159.93 U/mg.

In the case of `N=C(N)NCCC[C@H](NC(=O)[C@@H]1CCCN1C(=O)[C@@H]1CSSCCC(=O)N[C@H](Cc2cccnc2)C(=O)N[C@@H](Cc2ccccc2)C(=O)N[C@@H](CCC(N)=O)C(=O)N[C@@H](CC(N)=O)C(=O)N1)C(=O)NCC(N)=O`, the Activity was 1 U/mg in assay [1] and “Antagonist” in assay [2] (filed as antagonist). The inhibition constant (Ki) is given as 69 nM (antagonist) in assay [4] and 450 nM (antagonist) in assay [5].

Turning to `CC(C)C[C@@H]1NC(=O)[C@H](Cc2ccccc2)NC(=O)[C@H](Cc2ccc(O)cc2)NC(=O)CCSSC[C@@H](C(=O)N2CCC[C@H]2C(=O)N[C@@H](CCCN=C(N)N)C(=O)NCC(N)=O)NC(=O)[C@H](CC(N)=O)NC1=O` ([Mpa]YFLNCPRG-NH2; disulfide 1-6), the Ki was 3.1 nM (antagonist) in assay [4] and 1250 nM (antagonist) in assay [5].

As for `N=C(N)NCCC[C@@H]1NC(=O)[C@H](Cc2ccccc2)NC(=O)[C@H](Cc2ccc(O)cc2)NC(=O)CCSSC[C@@H](C(=O)N2CCC[C@H]2C(=O)N[C@@H](CCCN=C(N)N)C(=O)NCC(N)=O)NC(=O)[C@H](CC(N)=O)NC1=O` ([Mpa]YFRNCPRG-NH2; disulfide 1-6), the results for the Ki in assay [4] and in assay [5] were 0.2 nM (antagonist) and 12.9 nM (antagonist), respectively.

`NC(=O)CC[C@@H]1NC(=O)[C@H](Cc2ccccc2)NC(=O)[C@H](Cc2ccc(O)cc2)NC(=O)[C@@H](N)CSSC[C@@H](C(=O)N2CCC[C@H]2C(=O)N[C@@H](CCCN=C(N)N)C(=O)NCC(N)=O)NC(=O)[C@H](CC(N)=O)NC1=O` [VASOPRESSIN]: the inhibition constant (Ki) in assay [6] is 1.17 nM (antagonist).

As usually defined, the Ki is a dissociation constant, usually derived from enzyme kinetics or from competition with a known ligand. The low end stands for higher affinity, the high end for lower affinity.

The values above are taken from ChEMBL document CHEMBL1141418 (J Med Chem, 2007).
